Article PMC9775191, “A Subset Screen of the Compounds Australia Scaffold Library Identifies 7-Acylaminodibenzoxazepinones as Potent and Selective Hits for Anti-Giardia Drug Discovery” (Biomedicines, 2022)

tested on: Escherichia coli (ATCC 25922); assay: Anti-bacterial activity assay; type: cell-based; conditions: Escherichia coli, ATCC25922, 50 µM; read-out: Bacterial Inhibition E. coli
Protocol: (§1) The activity of compounds against methicillin resistant Staphylococcus aureus (ATCC 43300), Escherichia coli (ATCC 25922), Acinetobacter baumannii (ATCC 19606) and Klebsiella pneumoniae (ATCC 700603) was assessed at 50 µM in duplicate as previously described. In brief, mid-log phase bacteria cultures were added to 384-well microtiter plate wells containing compound to final cell density of 5 × 10^5 CFU/mL in 50 µL. Plates were then covered and incubated at 37 °C for 18 h without shaking. Inhibition of bacterial growth was determined by measuring absorbance at 600 nm (Tecan M1000 Pro monochromator plate reader) and calculating percentage growth inhibition relative to the negative media and bacteria without inhibitors. Vancomycin hydrochloride (Sigma-Aldrich an affiliate of Merck KGaA, Darmstadt, Germany, #861987) and colistin sulfate (Sigma-Aldrich an affiliate of Merck KGaA, Darmstadt, Germany, C4461) were on each plate as positive controls for Gram-positive (S. aureus) and Gram-negative (E. coli, A. baumannii and K. pneumoniae) bacteria, respectively.

For `O=S1(=O)CCC(n2cc(-c3cnn(-c4ccccc4)c3)cn2)C1` (stereo not drawn) [SN00776738, O=S1(=O)CCC(C1)n1ncc(c1)c1cnn(c1)c1ccccc1], which inhibition at 50 µM is on record?
The inhibition at 50 µM was 5.37%.

With `CN(C)CCn1cc(C(=O)c2cc(Cl)ccc2O)cc1-c1nc2ccccc2c(=O)[nH]1` [SN00778038, CN(C)CCn1cc(cc1c1nc2ccccc2c(=O)[nH]1)C(=O)c1cc(Cl)ccc1O] as the molecule, how does the inhibition at 50 µM read?
The inhibition at 50 µM was -2.44%.

tested on: Acinetobacter baumannii (ATCC 19606); assay: Anti-bacterial activity assay; type: cell-based; conditions: ATCC19606, 50 µM
Protocol: as §1

How did the inhibition at 50 µM turn out when `O=S1(=O)CCC(n2cc(-c3cnn(-c4ccccc4)c3)cn2)C1` (stereo not drawn) [SN00776738, O=S1(=O)CCC(C1)n1ncc(c1)c1cnn(c1)c1ccccc1] was run?
The inhibition at 50 µM was -4.28%.

For `CN(C)CCn1cc(C(=O)c2cc(Cl)ccc2O)cc1-c1nc2ccccc2c(=O)[nH]1` [SN00778038, CN(C)CCn1cc(cc1c1nc2ccccc2c(=O)[nH]1)C(=O)c1cc(Cl)ccc1O], which inhibition at 50 µM is on record?
Its inhibition at 50 µM is -8.73%.

tested on: Klebsiella pneumoniae (ATCC 700603); assay: Anti-bacterial activity assay; type: cell-based; conditions: ATCC700603, 50 µM, read-out: Bacterial Inhibition K. pneumoniae
Protocol: as §1

For `O=S1(=O)CCC(n2cc(-c3cnn(-c4ccccc4)c3)cn2)C1` (stereo not drawn) [SN00776738, O=S1(=O)CCC(C1)n1ncc(c1)c1cnn(c1)c1ccccc1], which inhibition at 50 µM is on record?
Its inhibition at 50 µM is 6.87%.

With `CN(C)CCn1cc(C(=O)c2cc(Cl)ccc2O)cc1-c1nc2ccccc2c(=O)[nH]1` [SN00778038, CN(C)CCn1cc(cc1c1nc2ccccc2c(=O)[nH]1)C(=O)c1cc(Cl)ccc1O] as the molecule, how does the inhibition at 50 µM read?
The inhibition at 50 µM was -1.96%.

tested on: methicillin resistant Staphylococcus aureus (ATCC 43300); assay: Anti-bacterial activity assay; type: cell-based; conditions: Staphylococcus aureus, ATCC43300, 50 µM; read-out: Bacterial Inhibition S. aureus
Protocol: as §1

With `O=S1(=O)CCC(n2cc(-c3cnn(-c4ccccc4)c3)cn2)C1` (stereo not drawn) [SN00776738, O=S1(=O)CCC(C1)n1ncc(c1)c1cnn(c1)c1ccccc1] as the molecule, how does the inhibition at 50 µM read?
Its inhibition at 50 µM is -13.4%.

How did the inhibition at 50 µM turn out when `CN(C)CCn1cc(C(=O)c2cc(Cl)ccc2O)cc1-c1nc2ccccc2c(=O)[nH]1` [SN00778038, CN(C)CCn1cc(cc1c1nc2ccccc2c(=O)[nH]1)C(=O)c1cc(Cl)ccc1O] was run?
The inhibition at 50 µM was -9.58%.

tested on: Neonatal foreskin fibroblast (NFF) cells; assay: Mammalian cell cytotoxicity assay (sulforhodamine B); type: cell-based, human; conditions: Homo sapiens, NFF; 20 µM; ±SD
Protocol: The selectivity of compounds of interest was assessed against NFF cells. Assays were performed using sulforhodamine B and included media only, negative (no compound, no DMSO), and vehicle (DMSO) controls as previously described. A chloroquine control plate was included in each assay. […] Repurchased SN00797640 was tested in dose–response from 100 µM against NFF. Selectivity indices (SI) were calculated by dividing mammalian cell IC50 values by G. duodenalis BRIS/91/HEPU/1279 IC50 values.

How did the inhibition at 20 µM turn out when `O=S1(=O)CCC(n2cc(-c3cnn(-c4ccccc4)c3)cn2)C1` (stereo not drawn) [SN00776738, O=S1(=O)CCC(C1)n1ncc(c1)c1cnn(c1)c1ccccc1] was run?
Its inhibition at 20 µM is 16 ± 0.6%.

With `CN(C)CCn1cc(C(=O)c2cc(Cl)ccc2O)cc1-c1nc2ccccc2c(=O)[nH]1` [SN00778038, CN(C)CCn1cc(cc1c1nc2ccccc2c(=O)[nH]1)C(=O)c1cc(Cl)ccc1O] as the molecule, how does the inhibition at 20 µM read?
The inhibition at 20 µM was 8.4 ± 4.7%.

same assay, conditions: Table S2; NFF vs 48 h Giardia IC50

Which “SI (48h Gd)” value does the source give for `CN(C)CCn1cc(C(=O)c2cc(Cl)ccc2O)cc1-c1nc2ccccc2c(=O)[nH]1` [SN00778038, CN(C)CCn1cc(cc1c1nc2ccccc2c(=O)[nH]1)C(=O)c1cc(Cl)ccc1O] here?
The value was greater than 5.

tested on: G. duodenalis BRIS/91/HEPU/1279; assay: Giardia dose response assay, assemblage B; type: cell-based, Giardia duodenalis; conditions: Giardia duodenalis, 24 h, read-out: G. duodenalis IC50 24h, Table S2; 24 h; ±SD; max 10 µM
Protocol: In these assays, compounds were serially diluted (8–12-point doubling dilutions in technical duplicate) in DMSO control media, with all test wells inoculated with parasites (1.5 × 10^4 parasites for BRIS/91/HEPU/1279 and BRIS/91/HEPU/1279m1, or 3 × 10^3 parasites for BRIS/87/HEPU/713). […] All plates were sealed in culture chambers and gassed with 3% O2, 5% CO2 in N2 and incubated at 37 °C for 48 h, with parasites imaged and enumerated at 24 and 48 h. Growth inhibition was calculated as a percentage relative to vehicle controls minus any background as described above and IC50 values were determined using log-linear interpolation as previously described. […] Statistical comparison of IC50 values when required were performed using Student’s t-test.

`O=S1(=O)CCC(n2cc(-c3cnn(-c4ccccc4)c3)cn2)C1` (stereo not drawn) [SN00776738, O=S1(=O)CCC(C1)n1ncc(c1)c1cnn(c1)c1ccccc1] was tested. Which IC50 did it give?
The IC50 was greater than 10 µM.

With `CN(C)CCn1cc(C(=O)c2cc(Cl)ccc2O)cc1-c1nc2ccccc2c(=O)[nH]1` [SN00778038, CN(C)CCn1cc(cc1c1nc2ccccc2c(=O)[nH]1)C(=O)c1cc(Cl)ccc1O] as the molecule, how does the IC50 read?
Its IC50 is greater than 10 µM.

same assay, conditions: Giardia duodenalis, 48 h, Table S2; 48 h; ±SD; max 10 µM; read-out: G. duodenalis IC50 48h

With `O=S1(=O)CCC(n2cc(-c3cnn(-c4ccccc4)c3)cn2)C1` (stereo not drawn) [SN00776738, O=S1(=O)CCC(C1)n1ncc(c1)c1cnn(c1)c1ccccc1] as the molecule, how does the IC50 read?
Its IC50 is greater than 10 µM.

With `CN(C)CCn1cc(C(=O)c2cc(Cl)ccc2O)cc1-c1nc2ccccc2c(=O)[nH]1` [SN00778038, CN(C)CCn1cc(cc1c1nc2ccccc2c(=O)[nH]1)C(=O)c1cc(Cl)ccc1O] as the molecule, how does the IC50 read?
The IC50 was 6.39 ± 2.8 µM.

tested on: G. duodenalis BRIS/91/HEPU/1279; assay: Primary Giardia screen at 10 µM (live-cell imaging, automated counting); type: cell-based, Giardia duodenalis; conditions: Giardia duodenalis, 24 h, first singlicate assay, read-out: % Inhibition n=1 24h
In short: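 Percent growth versus 0.2% DMSO vehicle, background-corrected with media-only wells, is reported at 24 and 48 h from automated live-cell counts. Testing used 10 μM final in a 3% O2 atmosphere, with plate quality checked by Z' factor.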

For `O=S1(=O)CCC(n2cc(-c3cnn(-c4ccccc4)c3)cn2)C1` (stereo not drawn) [SN00776738, O=S1(=O)CCC(C1)n1ncc(c1)c1cnn(c1)c1ccccc1], which inhibition at 10 µM is on record?
The inhibition at 10 µM was 46.8%.

Which inhibition at 10 µM does the source give for `CN(C)CCn1cc(C(=O)c2cc(Cl)ccc2O)cc1-c1nc2ccccc2c(=O)[nH]1` [SN00778038, CN(C)CCn1cc(cc1c1nc2ccccc2c(=O)[nH]1)C(=O)c1cc(Cl)ccc1O] here?
The inhibition at 10 µM was 45.3%.

same assay, conditions: Giardia duodenalis, 24 h, re-assessment, read-out: % Inhibition n=2 24h

How did the inhibition at 10 µM turn out when `O=S1(=O)CCC(n2cc(-c3cnn(-c4ccccc4)c3)cn2)C1` (stereo not drawn) [SN00776738, O=S1(=O)CCC(C1)n1ncc(c1)c1cnn(c1)c1ccccc1] was run?
The inhibition at 10 µM was 44.3%.

How did the inhibition at 10 µM turn out when `CN(C)CCn1cc(C(=O)c2cc(Cl)ccc2O)cc1-c1nc2ccccc2c(=O)[nH]1` [SN00778038, CN(C)CCn1cc(cc1c1nc2ccccc2c(=O)[nH]1)C(=O)c1cc(Cl)ccc1O] was run?
Its inhibition at 10 µM is 44.7%.

same assay, conditions: Giardia duodenalis, 24 h, read-out: Average % Inhibition 24h

With `O=S1(=O)CCC(n2cc(-c3cnn(-c4ccccc4)c3)cn2)C1` (stereo not drawn) [SN00776738, O=S1(=O)CCC(C1)n1ncc(c1)c1cnn(c1)c1ccccc1] as the molecule, how does the inhibition at 10 µM read?
The inhibition at 10 µM was 45.5%.

With `CN(C)CCn1cc(C(=O)c2cc(Cl)ccc2O)cc1-c1nc2ccccc2c(=O)[nH]1` [SN00778038, CN(C)CCn1cc(cc1c1nc2ccccc2c(=O)[nH]1)C(=O)c1cc(Cl)ccc1O] as the molecule, how does the inhibition at 10 µM read?
Its inhibition at 10 µM is 45%.

same assay, conditions: Giardia duodenalis, 48 h, first singlicate assay, read-out: % Inhibition n=1 48h

With `O=S1(=O)CCC(n2cc(-c3cnn(-c4ccccc4)c3)cn2)C1` (stereo not drawn) [SN00776738, O=S1(=O)CCC(C1)n1ncc(c1)c1cnn(c1)c1ccccc1] as the molecule, how does the inhibition at 10 µM read?
Its inhibition at 10 µM is 52.3%.

Which inhibition at 10 µM does the source give for `CN(C)CCn1cc(C(=O)c2cc(Cl)ccc2O)cc1-c1nc2ccccc2c(=O)[nH]1` [SN00778038, CN(C)CCn1cc(cc1c1nc2ccccc2c(=O)[nH]1)C(=O)c1cc(Cl)ccc1O] here?
Its inhibition at 10 µM is 85.2%.

same assay, conditions: Giardia duodenalis, 48 h, re-assessment, read-out: % Inhibition n=2 48h

How did the inhibition at 10 µM turn out when `O=S1(=O)CCC(n2cc(-c3cnn(-c4ccccc4)c3)cn2)C1` (stereo not drawn) [SN00776738, O=S1(=O)CCC(C1)n1ncc(c1)c1cnn(c1)c1ccccc1] was run?
Its inhibition at 10 µM is 80.1%.

How did the inhibition at 10 µM turn out when `CN(C)CCn1cc(C(=O)c2cc(Cl)ccc2O)cc1-c1nc2ccccc2c(=O)[nH]1` [SN00778038, CN(C)CCn1cc(cc1c1nc2ccccc2c(=O)[nH]1)C(=O)c1cc(Cl)ccc1O] was run?
The inhibition at 10 µM was 86.5%.

same assay, conditions: Giardia duodenalis, 48 h, read-out: Average % Inhibition 48h

With `O=S1(=O)CCC(n2cc(-c3cnn(-c4ccccc4)c3)cn2)C1` (stereo not drawn) [SN00776738, O=S1(=O)CCC(C1)n1ncc(c1)c1cnn(c1)c1ccccc1] as the molecule, how does the inhibition at 10 µM read?
The inhibition at 10 µM was 66.2%.

How did the inhibition at 10 µM turn out when `CN(C)CCn1cc(C(=O)c2cc(Cl)ccc2O)cc1-c1nc2ccccc2c(=O)[nH]1` [SN00778038, CN(C)CCn1cc(cc1c1nc2ccccc2c(=O)[nH]1)C(=O)c1cc(Cl)ccc1O] was run?
The inhibition at 10 µM was 85.8%.
